Assay results reported in publication PMC9656955, “The Novel Class IIa Selective Histone Deacetylase Inhibitor YAK540 Is Synergistic with Bortezomib in Leukemia Cell Lines” (International Journal of Molecular Sciences, 2022).

Tests used:
Format in all cases: biochemical
HDAC 8 = biological target: T1, HDAC 8 (Homo sapiens, UniProt Q9BY41); assay: recombinant enzyme fluorogenic assay, Boc-Lys-(Tfa)-AMC substrate; conditions: recombinant hdac 8; read-out: YAK540 / IC50 (pIC50 ±SEM) (converted)
T1 construct: gene HDAC8
T1 sequence (Q9BY41 1-377): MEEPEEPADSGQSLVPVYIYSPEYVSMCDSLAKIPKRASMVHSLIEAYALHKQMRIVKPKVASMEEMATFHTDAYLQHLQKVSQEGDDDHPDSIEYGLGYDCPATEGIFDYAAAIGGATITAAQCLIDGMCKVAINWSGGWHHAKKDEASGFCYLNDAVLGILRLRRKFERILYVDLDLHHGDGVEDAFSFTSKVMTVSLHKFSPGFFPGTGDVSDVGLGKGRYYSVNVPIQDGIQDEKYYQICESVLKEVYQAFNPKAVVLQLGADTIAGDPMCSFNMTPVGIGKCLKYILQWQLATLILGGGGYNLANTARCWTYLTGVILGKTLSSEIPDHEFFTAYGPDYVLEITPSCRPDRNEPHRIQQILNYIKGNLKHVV

HDAC 4 = biological target: T2, HDAC 4 (Homo sapiens, UniProt P56524); assay: as above; conditions: recombinant hdac 4; read-out: YAK540 / IC50 (pIC50 ±SEM) (converted)
T2 construct: gene HDAC4
T2 sequence (P56524 whole entry): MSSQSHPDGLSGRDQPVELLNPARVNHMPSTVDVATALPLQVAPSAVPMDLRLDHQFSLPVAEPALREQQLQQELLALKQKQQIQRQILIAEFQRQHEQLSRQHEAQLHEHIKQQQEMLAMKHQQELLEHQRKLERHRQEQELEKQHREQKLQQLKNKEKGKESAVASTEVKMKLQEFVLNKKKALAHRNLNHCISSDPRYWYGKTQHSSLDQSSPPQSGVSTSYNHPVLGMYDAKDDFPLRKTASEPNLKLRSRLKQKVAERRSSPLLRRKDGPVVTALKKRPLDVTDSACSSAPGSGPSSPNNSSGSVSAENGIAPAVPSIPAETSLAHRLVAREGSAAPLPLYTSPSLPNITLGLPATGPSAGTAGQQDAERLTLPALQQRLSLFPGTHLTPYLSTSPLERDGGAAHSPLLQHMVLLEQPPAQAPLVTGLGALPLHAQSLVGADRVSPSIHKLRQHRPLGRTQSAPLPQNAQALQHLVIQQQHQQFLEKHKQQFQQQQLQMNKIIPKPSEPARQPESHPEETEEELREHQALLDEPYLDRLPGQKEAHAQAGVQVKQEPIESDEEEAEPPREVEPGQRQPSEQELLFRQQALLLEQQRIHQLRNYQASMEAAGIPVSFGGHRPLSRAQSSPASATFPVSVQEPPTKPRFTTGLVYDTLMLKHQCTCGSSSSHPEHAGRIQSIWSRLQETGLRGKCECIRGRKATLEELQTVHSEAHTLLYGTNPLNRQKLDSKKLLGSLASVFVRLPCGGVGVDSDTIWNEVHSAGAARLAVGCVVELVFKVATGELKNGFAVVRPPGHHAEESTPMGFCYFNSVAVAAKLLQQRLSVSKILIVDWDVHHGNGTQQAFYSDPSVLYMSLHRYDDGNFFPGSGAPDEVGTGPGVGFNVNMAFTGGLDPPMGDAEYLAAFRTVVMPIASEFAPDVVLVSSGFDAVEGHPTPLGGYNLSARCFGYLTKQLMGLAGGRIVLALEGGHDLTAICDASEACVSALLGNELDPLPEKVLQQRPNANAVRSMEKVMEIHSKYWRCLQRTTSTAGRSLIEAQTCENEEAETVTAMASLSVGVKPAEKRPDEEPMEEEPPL

HDAC 6 = biological target: T3, HDAC 6 (Homo sapiens, UniProt Q9UBN7); assay: recombinant enzyme fluorogenic assay, Boc-Lys(Ac)-AMC substrate; conditions: recombinant hdac 6; read-out: YAK540 / IC50 (pIC50 ±SEM) (converted)
T3 construct: gene HDAC6
T3 sequence (Q9UBN7 1-1215): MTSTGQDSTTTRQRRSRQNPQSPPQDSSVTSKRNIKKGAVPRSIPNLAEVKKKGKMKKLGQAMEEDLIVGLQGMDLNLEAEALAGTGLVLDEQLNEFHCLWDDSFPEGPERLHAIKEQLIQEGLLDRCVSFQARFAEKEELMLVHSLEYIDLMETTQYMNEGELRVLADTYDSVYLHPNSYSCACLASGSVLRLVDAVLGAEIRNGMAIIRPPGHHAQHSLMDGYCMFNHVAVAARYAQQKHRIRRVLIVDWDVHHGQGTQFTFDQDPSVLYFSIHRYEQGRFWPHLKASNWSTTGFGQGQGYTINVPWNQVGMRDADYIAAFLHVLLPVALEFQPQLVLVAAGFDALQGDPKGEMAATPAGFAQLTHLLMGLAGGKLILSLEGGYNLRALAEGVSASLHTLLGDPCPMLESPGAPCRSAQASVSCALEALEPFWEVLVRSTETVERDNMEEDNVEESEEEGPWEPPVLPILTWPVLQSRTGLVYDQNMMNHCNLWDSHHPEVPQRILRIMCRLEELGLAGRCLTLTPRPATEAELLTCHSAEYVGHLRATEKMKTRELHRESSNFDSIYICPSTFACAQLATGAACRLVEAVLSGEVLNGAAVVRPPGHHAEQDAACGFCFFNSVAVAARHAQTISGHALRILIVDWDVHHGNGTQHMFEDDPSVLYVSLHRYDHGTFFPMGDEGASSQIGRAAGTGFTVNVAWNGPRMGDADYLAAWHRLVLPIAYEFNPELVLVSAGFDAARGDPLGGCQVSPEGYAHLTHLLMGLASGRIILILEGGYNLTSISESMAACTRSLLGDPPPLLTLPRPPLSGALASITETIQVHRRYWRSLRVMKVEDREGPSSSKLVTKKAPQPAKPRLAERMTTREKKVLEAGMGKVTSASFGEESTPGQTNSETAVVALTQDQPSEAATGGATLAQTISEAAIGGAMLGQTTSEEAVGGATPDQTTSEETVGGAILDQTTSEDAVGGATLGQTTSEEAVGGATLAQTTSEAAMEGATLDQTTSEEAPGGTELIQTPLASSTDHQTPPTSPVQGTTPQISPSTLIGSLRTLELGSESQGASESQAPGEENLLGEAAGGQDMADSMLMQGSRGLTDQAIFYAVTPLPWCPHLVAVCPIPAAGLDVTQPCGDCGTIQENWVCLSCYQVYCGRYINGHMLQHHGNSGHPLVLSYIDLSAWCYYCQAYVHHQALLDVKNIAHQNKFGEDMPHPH

HDAC 2 = biological target: T4, HDAC 2 (Homo sapiens, UniProt Q92769); assay: as above; conditions: recombinant hdac 2; read-out: YAK540 / IC50 (pIC50 ±SEM) (converted)
T4 construct: gene HDAC2
T4 sequence (Q92769 whole entry): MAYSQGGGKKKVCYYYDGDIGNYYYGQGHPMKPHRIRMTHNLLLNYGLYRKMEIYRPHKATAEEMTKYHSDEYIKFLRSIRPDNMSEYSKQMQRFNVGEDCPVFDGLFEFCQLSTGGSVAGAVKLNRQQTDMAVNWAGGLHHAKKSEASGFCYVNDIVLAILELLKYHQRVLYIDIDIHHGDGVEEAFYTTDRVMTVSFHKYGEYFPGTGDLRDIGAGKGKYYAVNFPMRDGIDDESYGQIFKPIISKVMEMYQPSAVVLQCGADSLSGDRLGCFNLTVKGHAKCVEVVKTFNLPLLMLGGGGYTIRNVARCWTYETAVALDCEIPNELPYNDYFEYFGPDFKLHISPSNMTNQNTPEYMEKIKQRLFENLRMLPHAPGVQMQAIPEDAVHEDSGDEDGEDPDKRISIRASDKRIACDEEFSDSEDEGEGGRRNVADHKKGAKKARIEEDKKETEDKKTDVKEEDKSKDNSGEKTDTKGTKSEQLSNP

## O=C(NOCCN1CCCCC1)c1ccc(-c2noc(C(F)(F)F)n2)cc1 [YAK540]
HDAC 8
  IC50: 9.39 µM
HDAC 4
  IC50: 114 nM
HDAC 6
  IC50: 11.4 µM
HDAC 2
  IC50: 30.2 µM
